In data set [1] the test system is lysosomal and autophagy genes. Kind of data set: Expression analysis of lysosomal and autophagy genes in HeLa cells. The settings on record: HeLa cells treated with MK2206. It counts as cell-based, human. The method, then:
FIG. 24. […] (b) Immunoblot analysis of LC3 lipidation. […] (d) Expression analysis of lysosomal and autophagy genes in HeLa cells treated with MK2206. Gene expression was normalized relative to the housekeeping gene, GAPDH. The dashed line indicates relative gene expression in untreated cells. […] Scale bar, 10 μm (a), 50 nm (c) and 20 μm (f).
Control (Coriell Institute, USA) and JNCL fibroblasts (Gaslini Institute, Italy) were grown in DMEM (1:1, HyClone) supplemented with 10% heat-inactivated fetal bovine serum (FBS, Atlanta Biologicals), 2 mM L-glutamine, 100 U/ml penicillin and […] streptomycin (Invitrogen). […]
(§1) Total RNA was extracted from the control and JNCL fibroblasts and from WT and Cln3^Δex7-8 cortical neuron cultures using the RNEasy kit (Qiagen) according to the manufacturer's instructions. Half of the mouse brain was processed for the RNA extraction and one microgram was used for complementary DNA synthesis by QuantiTect Reverse Transcription kit (Qiagen). The primers for PCR with reverse transcription reactions are listed in Table St Quantitative real-time PCR was performed by using iQ SYBR Green Supermix on the CFX96 Touch Real-Time Detection System (Bio-Rad Laboratories). […] Relative gene expression was determined using the ΔΔCT method, normalizing to GAPDH (for human genes) and cyclophilin (for mouse genes). […]

Data set [2] has as its system TFEB. The data set is described as follows: Serum re-stimulation of serum-starved Tsc2-/- cells, TFEB localization. Format: cell-based, mouse. The settings on record: preincubation with MK2206. How it is done:
FIG. 15. Serum stimulation modulates subcellular localization of TFEB by regulating Akt activity. (a) WT and Tsc2^−/− cells were serum starved (16 h), treated with MK2206 in the last two hr of starvation where indicated, and stimulated with dialyzed serum for the last 30 min when indicated. Cell lysates were probed with antibodies as indicated. (b) WT and Tsc2^−/− cells were transiently transfected with TFEB-Flag and treated as in (a) and analyzed by immunofluorescence confocal microscopy. Scale bar is 60 μm.

In data set [3] the test system is TFEB. The data set is described as follows: TFEB nuclear translocation in WT and Tsc2-/- MEFs. It counts as cell-based, mouse. The following applies: Tsc2-/- MEFs (constitutively active mTORC1) and control MEFs. The method, then: (b) Quantification of TFEB subcellular localization (C, cytoplasmic; N, nuclear) after 24 h of trehalose treatment (Tre) or in untreated cells (UT). Scale bars in a, b is 40 μm. (c) Immunoblot analyses show expression levels of substrates downstream of mTORC1. Wild-type (WT) and TSC2 null MEF cells were treated with trehalose (Tre; 100 mM) for 24 h or left untreated. As controls, cells were treated with Torin 1 (300 nM) or rapamycin (300 nM) for 2 h before extracting the lysates. Phospho- and total S6K1 (P-S6K1 and T-S6K1), phospho- and total S6 (P-S6 and T-S6) and phospho- and total 4E-BP1 (P-4E-BP1 and T-4E-BP1) were detected as readouts of mTORC1 activity. […] (f) HeLa cells co-transfected with TFEB-3×FLAG and mTOR or (g) TFEB-3×FLAG and constitutively active mTOR (CA-mTOR, […]) constructs were treated with trehalose (100 mM for 24 h) or left untreated before immunofluorescent labelling of TFEB (red) and mTOR (green) with FLAG and mTOR antibodies, respectively. Scale bar, 10 μm (d-g). Data represent means±s.e.m.
For immunofluorescence assay, cells were grown on coverslips in 24-well plates. After the treatment, cells were washed with PBS and fixed with methanol for 10 min. Cells were then blocked with blocking reagent (0.1% saponin, 10% bovine serum in PBS) for 1 h and incubated with appropriate primary antibody(s) (1:100) for 3 h at room temperature. […]

Another data set concerns LAMP1. Kind of data set: LAMP1 immunoblot in primary cortical astrocyte cultures. It counts as cell-based, mouse. The settings on record: astrocytes from WT and Cln3^Δex7-8 mice, 100 mM trehalose 4 days. The method, then:
Astrocytes were isolated from P0-1 mice and plated on poly-D-lysine coated six-well plates (BD Biosciences) in the presence of DMEM high glucose, supplemented with 10% FBS and 100 U/ml penicillin and […] streptomycin. After 7 days, the glial cell layer was removed and astrocytes were plated for treatment. An amount of 100 mM of trehalose was dissolved in the media the day after and kept for 4 days. Finally, astrocytes were collected and protein extracts were analysed by western blot assay.
(§2) Brain tissue and cultured cells were collected and lysed in RIPA buffer (50 mM Tris-HCl, ph 7.4, 1% NP40, 0.5% Na-deoxycholate, 0.1% SDS, 150 mM NaCl, 2 mM EDTA and 50 mM NaF) including a cocktail of protease (Roche) and phosphatase (SIGMA) inhibitors. Protein concentrations were measured with the bicinchoninic acid protein assay kit (Pierce, Rockford, Ill.), using bovine serum albumin as standard. Lysates were separated via SDS-polyacrylamide gel electrophoresis (PAGE) and then transferred to nitrocellulose membranes. Blots were incubated in blocking buffer (5%, w/v, dried skimmed milk in Tris-buffered saline, pH 7.4 and 0.2% Tween 20, TBST) followed by overnight incubation with appropriate antibodies diluted in blocking buffer (5% dry milk). Western blot images were acquired by LAS 4000 (GE Healthcare) and quantified using ImageJ. Images have been cropped for presentation.
On the technique in general: Immunoblotting shows a protein as a band on a membrane.

For data set [4] the following is noted: cited from earlier work.
The test system of a further data set is CLEAR genes. The data set is described as follows: Real-time qPCR of CLEAR genes in control and JNCL fibroblasts. The following applies: treated versus untreated. It counts as cell-based, human. How it is done:
Control (Coriell Institute, USA) and JNCL fibroblasts (Gaslini Institute, Italy) were grown in DMEM (1:1, HyClone) supplemented with 10% heat-inactivated fetal bovine serum (FBS, Atlanta Biologicals), 2 mM L-glutamine, 100 U/ml penicillin and […] streptomycin (Invitrogen). HeLa cells were incubated for 2 h with LY294002 ([…], Cell Signaling), Torin 1 (300 nM, Cayman Chemical) or for 24 h with trehalose (100 mM, Sigma), rapamycin (300 nM, Sigma), MK2206 (1 μM, Selleckchem), U0126 ([…], Tocris) and dialyzed serum (GE Healthcare Life Sciences) for 30 min.
as §1
On the technique in general: In qPCR the cycle at which signal appears reflects the starting amount.

In another data set the test system is ERK. Kind of data set: ERK inhibition check. Format: cell-based. How it is done:
as §2

SMILES strings stand for the structures.

In the case of `Cl.NC1(c2ccc(-c3nc4ccn5c(=O)[nH]nc5c4cc3-c3ccccc3)cc2)CCC1` [MK2206, 8-[4-(1-aminocyclobutyl)phenyl]-9-phenyl-1,2,4-triazolo[3,4-f][1,6]naphthyridin-3(2H)-one], in data set [1], the “expression of lysosomal and autophagy genes” value was “upregulated the expression of lysosomal and autophagy genes”. In the data set on TFEB [2], the “TFEB nucleus-to-cytosol translocation on serum re-stimulation” value was “prevented”.
For `OC[C@H]1O[C@H](O[C@H]2O[C@H](CO)[C@@H](O)[C@H](O)[C@H]2O)[C@H](O)[C@@H](O)[C@@H]1O` [trehalose, a-D-glucopyranosyl a-D-glucopyranoside], the TFEB nuclear translocation result in the data set on TFEB [3] is “induce TFEB nuclear translocation even with an active mTORC1”. In the data set on LAMP1, the LAMP1 levels result is reported as “increased LAMP1 levels”. The “oral amount that may cause diarrhea and bloating” value in data set [4] (oral) is 40-50 grams per day. Besides, the safety and toxicity entry in data set [4] (orally and intravenously, doses substantially higher than the intended therapeutic dose) is “found to be safe”. For the same compound, the “expression of CLEAR genes” value in the data set on CLEAR genes is given as “increased expression of tested CLEAR genes”. Besides, the ERK inhibition result in the data set on ERK was “does not inhibit ERK”.

These data come from patent US10512656B2, “Compositions and methods for the treatment of lysosomal storage disorders and disorders characterized by lysosomal dysfunction” (Baylor College of Medicine, priority 2016, dated 2019).
